We go through 13 molecules from publication PMC11833358 (Food Chemistry: X, 2025).

The test system of series [1] is Caco-2 cell monolayer. To be noted: for ER (efflux ratio, Papp(BL→AP)/Papp(AP→BL)) / Papp (AP→BL) / Papp (BL→AP): constituent of DS 100 μg/mL, 180 min; for Papp (AP→BL) / Papp (BL→AP): from UPLC-ESI-MS/MS peak areas.
A further series is described as follows: in vitro. The following applies: human, Caco-2.
Series [2] has as its system Caco-2 cell monolayer. The following applies: literature report; ref Chen et al., 2021; cited from earlier work.
For series [3], the system named is Caco-2 cell monolayer. In words: Phenol red flux and apparent permeability across Caco-2 cell monolayer. To be noted: AP→BL, 60 min, 5 μg/mL phenol red. The series is classed as in vitro ADME, human.

Several values for one entry are separate records, joined by “and”; a condition that tells them apart may be missing. Equal values may be shown once. Marks after values point to notes of the source that are not given here.

With “5,2′-Dihydroxy-7,8-dimethoxyflavone glycoside”, in the series with Caco-2 cell monolayer [1], the “ER (efflux ratio, Papp(BL→AP)/Papp(AP→BL))” value is reported as 2.29; the “Papp (AP→BL)” value is given as 3.05 10^−6 cm/s; the “Papp (BL→AP)” value is reported as 6.97 10^−6 cm/s.

Turning to `COc1cc(-c2oc3cc(O)c(OC)c(O)c3c(=O)c2OC)cc(OC)c1O` [5,7,4′-Trihydroxy-3,6,3′,5′-tetramethoxyflavone], in the series “in vitro”, the Papp A→B (in general, the apparent permeability from the apical to the basolateral side of a cell layer) at 180 min, 100 μg/mL came out at 3.24 ×10⁻⁶ cm/s; the Papp B→A (in general, the apparent permeability from the basolateral to the apical side of a cell layer) at 180 min, 100 μg/mL came to 23.1 ×10⁻⁶ cm/s; the efflux ratio – broadly, a quotient of directional permeabilities that is used to spot active efflux – at 180 min, 100 μg/mL stood at 7.13. For the same molecule, in the series on Caco-2 cell monolayer [1] (VIP ≥ 1, p < 0.05, fold change >2.0 or < 0.5), the “Differential metabolite TSA vs. TSB” value was “upregulated”.

On to `COc1ccc2c(c1)OCC(=Cc1cccnc1)C2=O` [7-Methoxy-3-[1-(3-pyridyl)methylidene]-4-chromanone], for which, in the series “in vitro”, the apparent permeability from basolateral to apical (Papp B→A) at 180 min, 100 μg/mL came out at 2.81 ×10⁻⁶ cm/s and the efflux ratio at 180 min, 100 μg/mL turned out to be 0.13. Besides, the “Papp (AP→BL)” value with Caco-2 cell monolayer [1] is 20.87 10^−6 cm/s.

Regarding `COc1cc(C[C@H]2C(=O)OC[C@@H]2Cc2ccc(OC)c(OC)c2)ccc1O` [Arctigenin], in “in vitro”, the Papp A→B at 180 min, 100 μg/mL is 5.37 ×10⁻⁶ cm/s; the Papp B→A at 180 min, 100 μg/mL came to 25.2 ×10⁻⁶ cm/s; the efflux ratio at 180 min, 100 μg/mL came to 4.69.

With `O=c1c(O[C@@H]2O[C@H](CO)[C@@H](O)[C@H](O)[C@H]2O)c(-c2ccc(O)cc2)oc2cc(O)cc(O)c12` [Astragalin], in the series “in vitro”, the Papp A→B at 180 min, 100 μg/mL was determined as 0.78 ×10⁻⁶ cm/s and the Papp B→A at 180 min, 100 μg/mL came to 4.26 ×10⁻⁶ cm/s.

In the series “in vitro”, `COc1cc([C@@H]2Oc3c(OC)cc(CCCO)cc3[C@H]2CO)ccc1O` [Dihydrodehydrodiconiferyl alcohol] showed a Papp A→B at 180 min, 100 μg/mL of 3.24 ×10⁻⁶ cm/s and a Papp B→A at 180 min, 100 μg/mL of 18.3 ×10⁻⁶ cm/s.

In the series “in vitro”, `COc1ccc(-c2cc(=O)c3c(O)c(OC)c(OC)cc3o2)cc1O` [Eupatorin] returned a Papp A→B at 180 min, 100 μg/mL of 2.17 ×10⁻⁶ cm/s and a Papp B→A at 180 min, 100 μg/mL of 17.3 ×10⁻⁶ cm/s.

Turning to `COc1cc(/C=C/C(=O)O)ccc1O` [Ferulic acid], in the series with Caco-2 cell monolayer [2], the Mode of translocation entry is reported as “active transport”. In the series on Caco-2 cell monolayer [1], the “ER (efflux ratio, Papp(BL→AP)/Papp(AP→BL))” value is recorded as 2.25; the “Papp (AP→BL)” value was 17.37 10^−6 cm/s; the “Papp (BL→AP)” value was 39.16 10^−6 cm/s.

On to `COc1ccc(/C=C/C(=O)O)cc1O` [Isoferulic acid], for which the Papp B→A at 180 min, 100 μg/mL in “in vitro” was 49.5 ×10⁻⁶ cm/s. The “Papp (AP→BL)” value in the series on Caco-2 cell monolayer [1] is listed as 24.51 10^−6 cm/s.

Take `COc1cc(O)c(CC=C(C)C)c2c1C(=O)CC(c1ccc(O)cc1)O2` (stereo not drawn) [Isoxanthohumol]: in the series with Caco-2 cell monolayer [2], the Mode of translocation entry is on record as “active transport”. Besides, in the series “in vitro”, the Papp A→B at 180 min, 100 μg/mL was 3.5 ×10⁻⁶ cm/s and the Papp B→A at 180 min, 100 μg/mL was 23.2 ×10⁻⁶ cm/s.

Consider `O=S1(=O)OC(c2ccc(O)cc2)(c2ccc(O)cc2)c2ccccc21` [Phenol red], for which the “Phenol red flux QBL” value is 4.18 ± 0.43^a μg in the series on Caco-2 cell monolayer [3] (cell culture time 3 days); 1.94 ± 0.70^b μg in the series on Caco-2 cell monolayer [3] (cell culture time 6 days); 1.36 ± 0.44^bc μg with Caco-2 cell monolayer [3] (cell culture time 9 days); 0.88 ± 0.15^cd μg in the series on Caco-2 cell monolayer [3] (cell culture time 12 days); 0.49 ± 0.21 μg and 0.49 ± 0.21^d μg with Caco-2 cell monolayer [3] (cell culture time 15 days); 0.40 ± 0.09^d μg in the series with Caco-2 cell monolayer [3] (cell culture time 18 days). Besides, in the series on Caco-2 cell monolayer [3] (cell culture time 21 days), the “Phenol red flux QBL” value was 0.37 ± 0.07^d μg.

As to `CC(=O)Oc1ccccc1` [Phenyl acetate], in the series “in vitro”, the Papp A→B at 180 min, 100 μg/mL is 8.89 ×10⁻⁶ cm/s and the Papp B→A at 180 min, 100 μg/mL was determined as 19.4 ×10⁻⁶ cm/s.

Regarding `O=c1c(-c2ccc(O[C@@H]3O[C@H](CO)[C@@H](O)[C@H](O)[C@H]3O)cc2)coc2cc(O)cc(O)c12` [Sophoricoside], in the series “in vitro”, the Papp A→B at 180 min, 100 μg/mL worked out at 1.63 ×10⁻⁶ cm/s and the Papp B→A at 180 min, 100 μg/mL was found to be 9.89 ×10⁻⁶ cm/s.
